# Reference: publication PMC8124942, “In Vitro and In Vivo Cell Uptake of a Cell-Penetrating Peptide Conjugated with Fluorescent Dyes Having Different Chemical Properties” (Cancers, 2021)
# Assay: Reverse-phase HPLC retention time as indicator of hydrophilicity/lipophilicity
# Format: physicochemical
# Conditions: chromatographic, COSMOSIL 5C18-AR-300 (4.6 x 150 mm), eluent A H2O/0.1% TFA, eluent B CH3CN/0.1% TFA, A:B = 80:20 to 20:80 in 25 min, detection 649 nm (Cy5/sulfoCy5) or 545 nm (Cy3/sulfoCy3), used as indicator of hydrophilicity/lipophilicity
# Source text: General chemicals were of the best grade available, supplied by FUJIFILM Wako Pure Chemical Corporation (Osaka, Japan), Tokyo Chemical Industries Co., Ltd. (Tokyo, Japan), KANTO CHEMICAL Co., INC. (Tokyo, Japan), and Sigma-Aldrich Co. LLC (St. Louis, MO, USA), and were used without further purification. Cy3/Cy5-SE was purchased from Abcam (Cambridge, UK) and sulfoCy3/sulfoCy5-SE was purchased from AAT Bioquest (Sunnyvale, CA, USA). Peptide A was purchased from GlyTech, Inc. (Kyoto, Japan). MALDI-TOF mass spectra (MS) were measured with an Autoflex III TOF/TOF (Bruker Corporation, Billerica, MA, USA). Purification and high-performance liquid chromatography (HPLC) analyses were performed by HPLC systems (Shimadzu Corporation, Kyoto, Japan) with reverse-phase columns: the COSMOSIL 5C18-AR-300 (4.6 × 150 mm) (NACALAI TESQUE, INC., Kyoto, Japan) for analysis and the COSMOSIL 5C18-AR-300 (10 mm × 150 mm) (NACALAI TESQUE, INC.) for purification, using eluent A (H2O/0.1% trifluoroacetic acid (TFA)) and eluent B (CH3CN/0.1% TFA). Fluorescence images of living cells were taken on a BX41 upright fluorescent microscope (Olympus Corporation, Tokyo, Japan) equipped with a suitable filter set for Cy3/Cy5 dyes; it consisted of a 530–550 nm excitation filter and a 575–625 nm emission filter for the Cy3 dye, and a 608–648 nm excitation filter and a 652–732 nm emission filter for the Cy5 dye. […] Fluorescence images of animals and organs were taken with a FluorVivo Imaging System (Indec BioSystems, Santa Clara, CA, USA) equipped with a suitable filter set for a Cy5 dye; it consisted of a 600–640 nm excitation filter and a 665 nm long pass filter. […]
# Cy3/Cy5-peptide A and sulfoCy3/sulfoCy5-peptide A were synthesized using commercially available Cy3/Cy5 succinimidyl ester (SE) and sulfoCy3/sulfoCy5 SE (Figure 1). […] Dye-SE and dye-peptide A were analyzed by HPLC under the same conditions; the retention times are shown in Table 1 because they are indicators of hydrophilicity/lipophilicity. […]
# Figure S1. […] The compounds were analyzed by reverse-phase HPLC (eluent A: […]
row,Retention Time [min],Compound
1,9.3,CCN1C(=CC=CC=CC2=[N+](CCCCCC(=O)ON3C(=O)CCC3=O)c3ccc(S(=O)(=O)O)cc3C2(C)C)C(C)(C)c2cc(S(=O)(=O)[O-])ccc21 [sulfoCy5-SE]
2,7.3,CCN1C(=CC=CC2=[N+](CCCCCC(=O)ON3C(=O)CCC3=O)c3ccc(S(=O)(=O)O)cc3C2(C)C)C(C)(C)c2cc(S(=O)(=O)[O-])ccc21 [sulfoCy3-SE]
3,22.6,Cy5 succinimidyl ester [Cy5-SE]
